Results from article PMC8348101, “Personal Glucose Meter for α-Glucosidase Inhibitor Screening Based on the Hydrolysis of Maltose” (Molecules, 2021).

Each compound was assayed against T1, α-glucosidase (Aspergillus niger, UniProt P56526) (assay: personal glucose meter assay of maltose hydrolysis, single concentration […]).
T1 construct: gene aglA
T1 sequence (P56526 26-985): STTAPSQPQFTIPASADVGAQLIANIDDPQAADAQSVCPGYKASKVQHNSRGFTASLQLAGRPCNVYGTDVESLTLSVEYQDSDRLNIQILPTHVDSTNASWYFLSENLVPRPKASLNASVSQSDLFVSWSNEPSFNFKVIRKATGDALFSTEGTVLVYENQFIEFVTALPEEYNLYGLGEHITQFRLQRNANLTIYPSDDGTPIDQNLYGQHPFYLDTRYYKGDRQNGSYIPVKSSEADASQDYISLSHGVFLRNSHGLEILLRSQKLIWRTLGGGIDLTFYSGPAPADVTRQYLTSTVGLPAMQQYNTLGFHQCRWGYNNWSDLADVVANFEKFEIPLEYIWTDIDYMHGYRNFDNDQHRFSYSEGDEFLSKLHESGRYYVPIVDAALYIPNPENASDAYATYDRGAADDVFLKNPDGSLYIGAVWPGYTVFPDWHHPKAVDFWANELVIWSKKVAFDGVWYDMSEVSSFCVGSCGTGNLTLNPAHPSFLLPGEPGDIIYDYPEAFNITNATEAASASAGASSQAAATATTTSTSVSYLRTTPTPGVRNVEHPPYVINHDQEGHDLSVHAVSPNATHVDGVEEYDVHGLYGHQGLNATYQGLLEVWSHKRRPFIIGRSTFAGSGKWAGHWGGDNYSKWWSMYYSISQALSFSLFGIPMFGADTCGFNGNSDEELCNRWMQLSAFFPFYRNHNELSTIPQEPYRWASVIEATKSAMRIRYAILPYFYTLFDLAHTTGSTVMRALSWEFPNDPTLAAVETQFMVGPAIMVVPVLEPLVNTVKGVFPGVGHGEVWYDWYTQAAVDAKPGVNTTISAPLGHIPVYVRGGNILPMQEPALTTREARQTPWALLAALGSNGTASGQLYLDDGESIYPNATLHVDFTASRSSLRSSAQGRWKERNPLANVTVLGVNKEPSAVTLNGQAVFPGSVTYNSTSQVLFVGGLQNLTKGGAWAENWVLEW
Assay type: biochemical

In order of falling inhibition at 5000 µM:
1. O=C(/C=C/c1ccc(O)c2c1[C@H](C(=O)O)[C@@H](c1ccc(O)c(O)c1)O2)O[C@H](Cc1ccc(O)c(O)c1)C(=O)O [lithospermic acid]  52.5 ± 3%
2. O=Cc1ccc(O)c(O)c1 [protocatechualdehyde]  36.8 ± 2.8%
3. OC[C@H]1O[C@@H](Oc2c(O)cc(O)cc2/C=C/c2ccc(O)cc2)[C@H](O)[C@@H](O)[C@@H]1O [TSG, 2,3,5,4′-tetrahydroxy stilbene-2-O-β-D-glucoside]  27 ± 2%
